Measurements taken from PMC4182091, “A Common Minimal Motif for the Ligands of HLA-B*27 Class I Molecules” (PLoS ONE, 2014).
Where two headings read alike, the source gives them in different places. Ends that are not written are not given here.

Legend:
Format in all cases: cell-based
HLA-B*2709 = target: T1, HLA-B*2709 (Homo sapiens, UniProt P01889, D138H/D201E/E176V/E204Q/G107R/H137Y/K202T/N104T/N87E/Q56L/Q94K/R106L/R155S/R180L/S101D/S121N/S48T/Y140H/Y33H/Y91C); test: HLA/peptide complex stability assay, RMA-S cells transfected with HLA-B*2709; settings: for fluorescence index, B*2709: peptide 200 µM, mean ± S.D. of three to five independent experiments
T1 construct: expressed in transfected cells; host or cells: RMA-S (TAP-deficient murine cell line)

HLA-B*2701 = target: T2, HLA-B*2701 (Homo sapiens, UniProt P01889, D138H/D201E/D98Y/E176V/E204Q/G107R/H137Y/K202T/L105A/N104T/N87E/Q56L/Q94K/R106L/R155S/R180L/S101N/S121N/S48T/Y140D/Y33H/Y91C); test: HLA/peptide complex stability assay, RMA-S cells transfected with HLA-B*2701; settings: for fluorescence index, B*2701: peptide 200 µM, mean ± S.D. of three to five independent experiments
T2 construct: expressed in transfected cells; host or cells: RMA-S (TAP-deficient murine cell line)

HLA-B*2705 = target: T3, HLA-B*2705 (Homo sapiens, UniProt P01889, D138H/D201E/E176V/E204Q/G107R/H137Y/K202T/N104T/N87E/Q56L/Q94K/R106L/R155S/R180L/S101D/S121N/S48T/Y140D/Y33H/Y91C); test: HLA/peptide complex stability assay, RMA-S cells transfected with HLA-B*2705; settings: for fluorescence index, B*2705: peptide 200 µM, mean ± S.D. of three to five independent experiments
T3 construct: expressed in transfected cells; host or cells: RMA-S (TAP-deficient murine cell line)

HLA-B*2704 = HLA-B*2704 (Homo sapiens, UniProt P01889, A235G/D138H/D201E/E204Q/G107R/H137Y/K202T/N104T/N87E/Q56L/Q94K/R106L/R155S/R180L/S121N/S48T/Y140D/Y33H/Y91C); test: HLA/peptide complex stability assay, RMA-S cells transfected with HLA-B*2704; settings: for fluorescence index, B*2704: peptide 200 µM, mean ± S.D. of three to five independent experiments
HLA-B*2706 = target: T4, HLA-B*2706 (Homo sapiens, UniProt P01889, A235G/D201E/E204Q/G107R/H137Y/K202T/N104T/N87E/Q56L/Q94K/R106L/R155S/R180L/S121N/S48T/Y33H/Y91C); test: HLA/peptide complex stability assay, RMA-S cells transfected with HLA-B*2706; settings: for fluorescence index, B*2706: peptide 200 µM, mean ± S.D. of three to five independent experiments
T4 construct: expressed in transfected cells; host or cells: RMA-S (TAP-deficient murine cell line)

HLA-B*2702 = HLA-B*2702 (Homo sapiens, UniProt P01889, D138H/D201E/E176V/E204Q/G107R/H137Y/K202T/L105A/N104I/N87E/Q56L/Q94K/R106L/R155S/R180L/S101N/S121N/S48T/Y140D/Y33H/Y91C); test: HLA/peptide complex stability assay, RMA-S cells transfected with HLA-B*2702; settings: for fluorescence index, B*2702: peptide 200 µM, mean ± S.D. of three to five independent experiments
HLA-B*2703 = target: T5, HLA-B*2703 (Homo sapiens, UniProt P01889, D138H/D201E/E176V/E204Q/G107R/H137Y/K202T/N104T/N87E/Q56L/Q94K/R106L/R155S/R180L/S101D/S121N/S48T/Y140D/Y33H/Y83H/Y91C); test: HLA/peptide complex stability assay, RMA-S cells transfected with HLA-B*2703; settings: for fluorescence index, B*2703: peptide 200 µM, mean ± S.D. of three to five independent experiments
T5 construct: expressed in transfected cells; host or cells: RMA-S (TAP-deficient murine cell line)

[1] = relative affinity (EC50 class), B*2709
[2] = relative affinity (EC50 class), B*2701
[3] = relative affinity (EC50 class), B*2705
[4] = relative affinity (EC50 class), B*2704
[5] = relative affinity (EC50 class), B*2702
[6] = relative affinity (EC50 class), B*2703
[7] = relative affinity (EC50 class), B*2706
[8] = Table 1, transfected RMA-S cells, 2 h 26°C then 2 h 37°C, ME1 mAb, flow cytometry, ratio to control without peptide, SD
[9] = Table 4, monosubstituted Ala analogs, transfected RMA-S cells, flow cytometry, SD

Row | Sequence | EC50 (HLA-B*2709; EC50, B*2709, SD) [µM] | EC50 (HLA-B*2709; [1]) [µM] | EC50 (HLA-B*2701; [2]) [µM] | relative MHC class I affinity according to the EC50 value, in words (high, medium, low) (HLA-B*2705) | EC50 (HLA-B*2705; EC50, B*2705, SD) [µM] | EC50 (HLA-B*2704; EC50, B*2704, SD) [µM] | EC50 (HLA-B*2704; [4]) [µM] | EC50 (HLA-B*2706; EC50, B*2706, SD) [µM] | EC50 (HLA-B*2702; EC50, B*2702, SD) [µM] | EC50 (HLA-B*2702; [5]) [µM] | EC50 (HLA-B*2703; EC50, B*2703, SD) [µM] | EC50 (HLA-B*2703; [6]) [µM] | also measured
1 | HRQDINGKEM [NP 100-109] | 24 ± 7 | 20 to 60 | > 200 | medium | 50 ± 15 | 67 ± 27 | 61 to 200 | 3 ± 2 | 132 ± 53 | 61 to 200 | 96 ± 43 | 61 to 200 | EC50 (HLA-B*2701; EC50, B*2701): > 200 µM; EC50 (HLA-B*2705; [3]): 20 to 60 µM
2 | RRAAAAAAAI [RRA7I] | 2 ± 1 | – | – | – | – | – | – | – | 28 ± 16 | – | 7 ± 5 | – | EC50 (HLA-B*2701; SD): 7 ± 2 µM; EC50 (HLA-B*2705; SD): 4 ± 3 µM; EC50 (HLA-B*2704; SD): 7 ± 2 µM; EC50 (HLA-B*2706; SD): 2 ± 1 µM; EC50 (HLA-B*2702; read-out: relative affinity (EC50 class), B*2702): 20 to 60 µM
3 | KRYKGLLPKDI [NP 195-205] | 7 ± 2 | – | – | high | 7 ± 5 | 16 ± 3 | – | 1 ± 1 | 9 ± 1 | – | 20 ± 11 | – | EC50 (HLA-B*2701; EC50, B*2701, SD): 8 ± 1 µM
4 | RRANNVLKNEA [A11-NP 184-194, monosubstituted Ala analog of HRSV NP 184-194, […]] | – | – | – | – | – | – | – | – | – | – | – | – | fluorescence index, B*2709 (HLA-B*2709; […], SD): 1.8±0.1; fluorescence index, B*2701 (HLA-B*2701; […], SD): 1.1±0.1; fluorescence index, B*2705 (HLA-B*2705; […], SD): 2.1±0.1; fluorescence index, B*2704 (HLA-B*2704; […], SD): 2.0±0.2; fluorescence index, B*2706 (HLA-B*2706; […], SD): 2.7±0.2; fluorescence index, B*2702 (HLA-B*2702; […], SD): 1.7±0.1; fluorescence index, B*2703 (HLA-B*2703; […], SD): 1.7±0.2
5 | KRLPADVLKK [M2 150-159] | 22 ± 9 | 20 to 60 | > 200 | high | 18 ± 3 | 73 ± 9 | 61 to 200 | – | 136 ± 63 | 61 to 200 | 78 ± 10 | 61 to 200 | EC50 (HLA-B*2701; read-out: EC50, B*2701): > 200 µM; EC50 (HLA-B*2706; EC50, B*2706): > 200 µM; EC50 (HLA-B*2706; [7]): > 200 µM
6 | GRNEVFSNK [L 2089-2097] | 68 ± 24 | 61 to 200 | > 200 | medium | 32 ± 6 | 169 ± 57 | 61 to 200 | – | – | > 200 | 71 ± 28 | 61 to 200 | EC50 (HLA-B*2701; read-out: EC50, B*2701): > 200 µM; EC50 (HLA-B*2705; [3]): 20 to 60 µM; EC50 (HLA-B*2706; EC50, B*2706): > 200 µM; EC50 (HLA-B*2706; [7]): > 200 µM; EC50 (HLA-B*2702; EC50, B*2702): > 200 µM
7 | SRSALLAQM [M 76-84] | 6 ± 2 | – | – | high | 5 ± 5 | 15 ± 6 | – | 1 ± 1 | – | > 200 | 6 ± 3 | – | EC50 (HLA-B*2701; EC50, B*2701, SD): 15 ± 11 µM; EC50 (HLA-B*2702; EC50, B*2702): > 200 µM
8 | VAFTSHEHF [CMV pp65, reference compound] | – | – | – | – | – | – | – | – | – | – | – | – | fluorescence index, B*2709 (HLA-B*2709; [8]): 1.1±0.1; fluorescence index, B*2709 (HLA-B*2709; [9]): 1.1±0.1; fluorescence index, B*2701 (HLA-B*2701; [8]): 1.0±0.1; fluorescence index, B*2701 (HLA-B*2701; [9]): 1.0±0.1; fluorescence index, B*2705 (HLA-B*2705; [8]): 1.0±0.1; fluorescence index, B*2705 (HLA-B*2705; [9]): 1.0±0.1; fluorescence index, B*2704 (HLA-B*2704; [8]): 1.0±0.1; fluorescence index, B*2704 (HLA-B*2704; [9]): 1.0±0.1; fluorescence index, B*2706 (HLA-B*2706; [8]): 1.0±0.1; fluorescence index, B*2706 (HLA-B*2706; [9]): 1.0±0.1; fluorescence index, B*2702 (HLA-B*2702; [8]): 1.0±0.1; fluorescence index, B*2702 (HLA-B*2702; [9]): 1.0±0.1; fluorescence index, B*2703 (HLA-B*2703; [8]): 1.0±0.1; fluorescence index, B*2703 (HLA-B*2703; [9]): 1.0±0.1
